Test results taken from article PMC8315801, “The fluoride permeation pathway and anion recognition in Fluc family fluoride channels” (eLife, 2021).

Key:
Assay in all cases: biochemical
Fluc-Bpe [1] = target: Fluc-Bpe (Bordetella pertussis, UniProt Q7VYU0, R29K)
Excerpt: planar lipid bilayer, block of fluoride current, two-site fit on Fluc-Bpe

Fluc-Bpe [2] = target: Fluc-Bpe (Bordetella pertussis, UniProt Q7VYU0, E88Q/R29K/S83C)
Excerpt: (§1) planar lipid bilayer, block of fluoride current, oriented channels, single-site fit on Fluc-Bpe

Fluc-Bpe [3] = target: Fluc-Bpe (Bordetella pertussis, UniProt Q7VYU0, R29K/S83C)
Fluc-Bpe (Bordetella pertussis, UniProt Q7VYU0, R29K/S83C), sequence (Q7VYU0 whole entry R29K/S83C): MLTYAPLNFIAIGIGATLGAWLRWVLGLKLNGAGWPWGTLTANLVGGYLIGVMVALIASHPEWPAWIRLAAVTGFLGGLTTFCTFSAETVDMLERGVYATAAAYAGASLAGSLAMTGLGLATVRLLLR
Excerpt: as §1

Fluc-Bpe (Bordetella pertussis, UniProt Q7VYU0, R29K), sequence (Q7VYU0 whole entry R29K): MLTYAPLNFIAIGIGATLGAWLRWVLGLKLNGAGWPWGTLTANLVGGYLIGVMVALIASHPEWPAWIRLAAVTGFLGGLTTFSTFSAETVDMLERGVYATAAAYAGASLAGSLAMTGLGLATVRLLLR
Fluc-Bpe (Bordetella pertussis, UniProt Q7VYU0, E88Q/R29K/S83C), sequence (Q7VYU0 whole entry E88Q/R29K/S83C): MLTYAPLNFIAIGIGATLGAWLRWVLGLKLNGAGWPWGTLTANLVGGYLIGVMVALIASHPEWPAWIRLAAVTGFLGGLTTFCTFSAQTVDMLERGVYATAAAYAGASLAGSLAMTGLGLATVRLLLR

| Compound | Ki (Fluc-Bpe [1]) [mM] | Ki (Fluc-Bpe [2]) [mM] | Ki (Fluc-Bpe [3]) [mM] |
| --- | --- | --- | --- |
| O=[N+]([O-])O [NO3^-] | 45 |  |  |
| N#CO [OCN^-] | 6.8 | 48.9 | 7.9 |
| N#CS [SCN^-] | 9 |  |  |
